What was measured:
[1] = tested on: ischemia and reperfusion of the heart; settings: rabbits, cited from earlier work
[2] = tested on: human fibroblast cells lines (W138 or BJ cells); assay: Extending proliferative capacity and lifespan of cells; format: cell-based
Procedure: At the time of subdivision, the media is aspirated, and the cells rinsed with phosphate buffer saline (PBS) and then trypsinized. The cells are counted with a Coulter counter and plated at a density of 10^5 cells per cm^2 in 6-well tissue culture plates in DMEM/199 medium supplemented with 10% bovine calf serum and varying amounts (0.10 μM, and 1 mM: from a 100×stock solution in DMEM/M199 medium) of a PARG inhibitor. This process is repeated every 7 days until the cell appear to stop dividing. The untreated (control) cells reach senescence and stop dividing after about 40 days in culture. […] The cells treated with 1 mM 3-AB will still divide after 60 days in culture.

Colitis = settings: rats; colitis by trinitrobenzene sulfonic acid in 50% ethanol; cited from earlier work
[3] = tested on: cell viability, glucose metabolism, and DNA synthesis; settings: cited from earlier work
endotoxic shock = settings: cited from earlier work

## Oc1cccc2c(O)nccc12 [1,5-dihydroxyisoquinoline]
[1]; 1 mg/kg
  reduction in infarct size: 38-48%

## NC(=O)c1cccc(N)c1 [3-aminobenzamide]
[2]; 10 μM
  effect on lifespan of the cells: little or no effect
[2]; 100 μM
  effect on lifespan of the cells: lengthen the lifespan of the cells
[2]; 1 mM
  effect on lifespan and proliferative capacity of the cells: dramatically increases the lifespan and proliferative capacity of the cells
[2]; 1 mM, untreated cells stop dividing after about 40 days
  time in culture at which cells still divide: > 60 days
[1]; single injection 10 mg/kg, one minute before occlusion or one minute before reperfusion
  reduction in infarct size in the heart: 32-42%
Colitis
  inflammatory response, morphology and energetic status of the distal colon: reduced the inflammatory response and restored the morphology and the energetic status of the distal colon
[3]
  additional metabolic effects (side effects): affect cell viability, glucose metabolism, and DNA synthesis

## COc1cc(C(=O)OC[C@H]2OC(OC(=O)c3cc(OC)c(OC)c(OC)c3)[C@H](OC(=O)c3cc(OC)c(OC)c(OC)c3)[C@@H](OC(=O)c3cc(OC)c(OC)c(OC)c3)[C@@H]2OC(=O)c2cc(OC)c(OC)c(OC)c2)cc(OC)c1OC (stereo partly drawn) [Example 4, 1,2,3,4,6-Penta-O-(3,4,5-Trimethoxybenzoyl)-D-Glucopyranose]
other
  melting point: 85 to 90 °C

## NC(=O)c1ccccc1 [benzamide]
[3]
  additional metabolic effects (side effects): affect cell viability, glucose metabolism, and DNA synthesis

## NC(=O)c1cccnc1 [nicotinamide]
Endotoxic shock
  delayed, NO-mediated vascular failure: protects against delayed, NO-mediated vascular failure in endotoxic shock

Reference: patent US20030078212A1, “PHARMACEUTICAL COMPOSITIONS CONTAINING POLY(ADP-RIBOSE) GLYCOHYDROLASE INHIBITORS AND METHODS OF USING THE SAME” (priority 1998, published 2003)
